Source: PubChem BioAssay AID248 (DTP/NCI, 2004)
Values joined by “and” are separate entries in the source; they are usually repeats but may differ in a detail not shown here. Equal entries are not always repeated. Inconclusive results and toxic doses are left out. No stated cut-off is given here; in the data, active means T/C of 150% or more; inactive means T/C below 125%.

Test system: L1210 leukemia ip in BDF1 mice, survival T/C
Assay: NCI In Vivo Anticancer Drug Screen. Data for tumor model L1210 Leukemia (intraperitoneal) in B6D2F1 (BDF1) mice
Conditions: endpoint: mean survival time, higher = longer survival
Procedure, shortened: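 Survival endpoint. Drug-treated group vs vehicle group, expressed as T divided by C. Tumor passaged by transplantation.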

[1] = dose: 100.0 mg/kg/injection, schedule: Q01DX001 (ip), vehicle: saline
[2] = dose: 100.0 mg/kg/injection, schedule: Q04DX003 (ip), vehicle: saline
[3] = dose: 200.0 mg/kg/injection, schedule: Q01DX001 (ip), vehicle: saline
[4] = dose: 400.0 mg/kg/injection, schedule: Q01DX001 (ip), vehicle: saline
[5] = dose: 50.0 mg/kg/injection, schedule: Q01DX001 (ip), vehicle: carboxymethylcellulose (CMC)
[6] = dose: 100.0 mg/kg/injection, schedule: Q01DX001 (ip), vehicle: carboxymethylcellulose (CMC)
[7] = dose: 25.0 mg/kg/injection, schedule: Q01DX009 (ip), vehicle: saline
[8] = dose: 50.0 mg/kg/injection, schedule: Q01DX009 (ip), vehicle: saline
[9] = dose: 200.0 mg/kg/injection, schedule: Q01DX001 (ip), vehicle: carboxymethylcellulose (CMC)
[10] = dose: 50.0 mg/kg/injection, schedule: Q01DX001 (ip), vehicle: saline
[11] = dose: 100.0 mg/kg/injection, schedule: Q04DX003 (ip), vehicle: saline with Tween-80
[12] = dose: 200.0 mg/kg/injection, schedule: Q04DX003 (ip), vehicle: saline with Tween-80
[13] = dose: 400.0 mg/kg/injection, schedule: Q04DX003 (ip), vehicle: saline with Tween-80
[14] = dose: 100.0 mg/kg/injection, schedule: Q04DX003 (ip), vehicle: Klucel (hydroxypropylcellulose) (HPC)
[15] = dose: 200.0 mg/kg/injection, schedule: Q04DX003 (ip), vehicle: Klucel (hydroxypropylcellulose) (HPC)
[16] = dose: 400.0 mg/kg/injection, schedule: Q04DX003 (ip), vehicle: Klucel (hydroxypropylcellulose) (HPC)
[17] = dose: 25.0 mg/kg/injection, schedule: Q04DX003 (ip), vehicle: saline
[18] = dose: 50.0 mg/kg/injection, schedule: Q04DX003 (ip), vehicle: saline

Measured: T/C

O=P(OCc1ccccc1)(N(CCCl)CCCl)N1CCN(P(=O)(OCc2ccccc2)N(CCCl)CCCl)CC1 (stereo not drawn)
inactive: dose: 16.0 mg/kg/injection, schedule: Q01DX Z (ip), vehicle: saline 94 % of control | dose: 32.0 mg/kg/injection, schedule: Q01DX Z (ip), vehicle: saline 89 % of control | dose: 64.0 mg/kg/injection, schedule: Q01DX Z (ip), vehicle: saline 95 % of control | dose: 128.0 mg/kg/injection, schedule: Q01DX Z (ip), vehicle: saline 111 % of control

C1CCNNC1
inactive: [1] 104 % of control | [2] 114 % of control | [3] 98 % of control | dose: 200.0 mg/kg/injection, schedule: Q04DX003 (ip), vehicle: saline 94 % of control | [4] 95 % of control | dose: 400.0 mg/kg/injection, schedule: Q04DX003 (ip), vehicle: saline 89 % of control

CCOc1cc[n+]([O-])cc1C
inactive: [5] 102 % of control | [6] 98 % of control

O=C(C[n+]1ccccc1)N/N=C/c1ccc(Cl)c(Cl)c1
inactive: [7] 94 % of control | [8] 102 % of control | dose: 100.0 mg/kg/injection, schedule: Q01DX009 (ip), vehicle: saline 102 % of control

COc1cccc(/C(C#N)=C\O)c1
inactive: dose: 100.0 mg/kg/injection, schedule: Q04DX002 (ip), vehicle: saline with Tween-80 104 % of control | dose: 200.0 mg/kg/injection, schedule: Q04DX002 (ip), vehicle: saline with Tween-80 96 % of control

CC(O)C1CCN(Cc2ccccc2)CC1 (stereo not drawn)
inactive: [5] 101 % of control | [6] 108 % of control | [9] 106 % of control

CCOC(=O)N1C(c2ccccc2)N(c2ccccc2)C(c2ccccc2)N1C(=O)OCC (stereo not drawn)
inactive: [10] 108 % of control | [1] 103 % of control | [3] 108 % of control | [4] 103 % of control

COc1cc2ccc3c(c2cc1OC)CN(C)CC3
inactive: dose: 12.5 mg/kg/injection, schedule: Q01DX009 (ip), vehicle: saline 91 % of control | [7] 97 % of control | [8] 100 % of control | [2] 103 % of control

CCCCC(CCCC)NC(C)CO (stereo not drawn)
inactive: dose: 75.0 mg/kg/injection, schedule: Q01DX001 (ip), vehicle: saline 102 % of control

CNC(=O)Nc1cc2ccccc2o1
inactive: [11] 101 % of control | [12] 92 % of control | [13] 92 % of control

COC(=N)Cc1ccccc1
inactive: dose: 75.0 mg/kg/injection, schedule: Q01DX009 (ip), vehicle: saline with Tween-80 100 % of control | dose: 150.0 mg/kg/injection, schedule: Q01DX009 (ip), vehicle: saline with Tween-80 101 % of control | dose: 300.0 mg/kg/injection, schedule: Q01DX009 (ip), vehicle: saline with Tween-80 101 % of control

COc1cc(CCl)c(OC)cc1Cl
inactive: dose: 100.0 mg/kg/injection, schedule: Q01DX009 (ip), vehicle: saline with Tween-80 100 % of control | [11] 99 % of control | dose: 200.0 mg/kg/injection, schedule: Q01DX009 (ip), vehicle: saline with Tween-80 106 % of control | [12] 91 % of control | [13] 99 % of control

Nc1ncnc2nncnc12
inactive: [5] 93 % of control | [6] 93 % of control

CNS(=O)(=O)c1cccc(C(N)=S)c1
inactive: dose: 100.0 mg/kg/injection, schedule: Q01DX001 (ip), vehicle: saline with Tween-80 105 % of control | dose: 200.0 mg/kg/injection, schedule: Q01DX001 (ip), vehicle: saline with Tween-80 100 % of control | dose: 400.0 mg/kg/injection, schedule: Q01DX001 (ip), vehicle: saline with Tween-80 100 % of control

COc1cc(/C=C(\C#N)c2cccc3ccccc23)cc(OC)c1OC
inactive: [14] 107 % of control | [15] 103 % of control | [16] 94 % of control

CCOc1ccc(/C=C2\N=C(c3ccccc3)OC2=O)cc1
inactive: dose: 100.0 mg/kg/injection, schedule: Q01DX009 (ip), vehicle: Klucel (hydroxypropylcellulose) (HPC) 98 % of control | [14] 100 % of control | dose: 200.0 mg/kg/injection, schedule: Q01DX009 (ip), vehicle: Klucel (hydroxypropylcellulose) (HPC) 88 % of control | [15] 100 % of control | dose: 400.0 mg/kg/injection, schedule: Q01DX009 (ip), vehicle: Klucel (hydroxypropylcellulose) (HPC) 93 % of control | [16] 98 % of control

CC12CCC(=O)C=C1CCC1C2C(O)CC2(C)C1CCC2(O)C(=O)CSc1ccc(N(CCCl)CCCl)cc1 (stereo not drawn)
inactive: dose: 100.0 mg/kg/injection, schedule: Q01DX001 (sc), vehicle: steriod suspending solution 92 % of control | dose: 200.0 mg/kg/injection, schedule: Q01DX001 (sc), vehicle: steriod suspending solution 100 % of control | dose: 400.0 mg/kg/injection, schedule: Q01DX001 (sc), vehicle: steriod suspending solution 103 % of control

CCOC(=O)Sc1ncnc2nc[nH]c12
inactive: dose: 10.0 mg/kg/injection, schedule: Q01DX Z (ip), vehicle: carboxymethylcellulose (CMC) 117 % of control

C[NH-].C[NH-].C[NH-].[Cl][Rh]([Cl])[Cl]
inactive: [17] 96 % of control | [18] 96 % of control | [2] 96 % of control

FC(F)(F)c1cccc(-n2nncc2-c2ccccc2)c1
inactive: dose: 100.0 mg/kg/injection, schedule: Q04DX002 (ip), vehicle: Klucel (hydroxypropylcellulose) (HPC) 97 % of control | dose: 200.0 mg/kg/injection, schedule: Q04DX002 (ip), vehicle: Klucel (hydroxypropylcellulose) (HPC) 101 % of control | dose: 400.0 mg/kg/injection, schedule: Q04DX002 (ip), vehicle: Klucel (hydroxypropylcellulose) (HPC) 97 % of control

C=CCCCCCCC=C
inactive: [5] 93 % of control | [9] 88 % of control | dose: 400.0 mg/kg/injection, schedule: Q01DX001 (ip), vehicle: carboxymethylcellulose (CMC) 93 % of control

CCOC(=N)CCNS(=O)(=O)c1ccc(C)cc1
inactive: [1] 104 % of control | [3] 98 % of control | [4] 115 % of control

CCN(CC)CCOc1ccccc1Br
inactive: dose: 12.5 mg/kg/injection, schedule: Q04DX003 (ip), vehicle: saline 97 % of control | [7] 95 % of control | [17] 96 % of control | [8] 98 % of control | [18] 97 % of control | [2] 100 % of control

CC(=O)[C@H]1CC[C@H]2[C@@H]3CCC4=CC(=O)C=C[C@]4(C)[C@H]3C(=O)C[C@]12C
inactive: dose: 25.0 mg/kg/injection, schedule: Q01DX015 (sc), vehicle: steriod suspending solution 98 % of control | dose: 50.0 mg/kg/injection, schedule: Q01DX015 (sc), vehicle: steriod suspending solution 100 % of control | dose: 100.0 mg/kg/injection, schedule: Q01DX009 (sc), vehicle: steriod suspending solution 97 % of control | dose: 100.0 mg/kg/injection, schedule: Q01DX015 (sc), vehicle: steriod suspending solution 93 % of control | dose: 100.0 mg/kg/injection, schedule: Q04DX003 (ip), vehicle: steriod suspending solution 98 % of control | dose: 200.0 mg/kg/injection, schedule: Q01DX009 (sc), vehicle: steriod suspending solution 97 % of control | dose: 200.0 mg/kg/injection, schedule: Q01DX015 (sc), vehicle: steriod suspending solution 104 % of control and 107 % of control | dose: 200.0 mg/kg/injection, schedule: Q04DX003 (ip), vehicle: steriod suspending solution 101 % of control | dose: 400.0 mg/kg/injection, schedule: Q01DX009 (sc), vehicle: steriod suspending solution 100 % of control | dose: 400.0 mg/kg/injection, schedule: Q01DX015 (sc), vehicle: steriod suspending solution 104 % of control | dose: 400.0 mg/kg/injection, schedule: Q04DX003 (ip), vehicle: steriod suspending solution 112 % of control | dose: 800.0 mg/kg/injection, schedule: Q01DX015 (sc), vehicle: steriod suspending solution 104 % of control

CCCCC(CCCC)c1cc[n+](CC(=O)c2ccccc2)cc1
inactive: dose: 12.5 mg/kg/injection, schedule: Q01DX001 (ip), vehicle: saline 106 % of control | [10] 97 % of control

CC(C)(C)c1ccc(C(=O)O)cc1Br
inactive: dose: 50.0 mg/kg/injection, schedule: Q04DX003 (ip), vehicle: other 104 % of control | dose: 100.0 mg/kg/injection, schedule: Q04DX003 (ip), vehicle: other 113 % of control | dose: 200.0 mg/kg/injection, schedule: Q04DX003 (ip), vehicle: other 98 % of control
